For data set [1], the system named is primary heart muscle cells from newborn rats. Briefly: Inhibitory activity on heart muscle cell apoptosis (serum-free culture, viable cell number by WST-8). Type of data set: cell-based, Wister rats. The settings on record: Rattus norvegicus, 96 h; mean of three independent experiments; concentration required to increase the mean viable cell number by 50% as compared with that in the absence of test compounds; serum-free Medium 199, 4 days. The source says: Inhibitory Activity on Heart Muscle Cell Apoptosis
Newborn rats (within 1 day afterbirth) were obtained from pregnant Wister rats purchased from Charles River, anesthetized under ether, and sterilized with 70% ethanol, and then their hearts were excised with tweezers. The excised hearts were washed with a phosphate-buffered physiological saline (T900; Takara) and cut into pieces with surgical scissors. These tissue pieces were washed 4 to 5 times with a phosphate-buffered physiological saline to remove a majority of blood-derived non-heart muscle cells. To the tissue pieces derived from 10 newborns, 5 ml of enzyme solution (1.25 mg trypsin (Difco) and 0.25 mg collagenase (Sigma) per ml of phosphate-buffered saline (PBS)) was added and the mixture was stirred with a stirrer at 37° C. for 15 minutes. Another 2.5 ml enzyme solution was then added twice repeatedly at a 15-minutes interval. Then, Medium 199 (Gibco) containing 10% fetal calf serum (Biowiker) was added in a half volume of the enzyme solution to terminate the enzyme reaction. The cells were filtered through a Cell Strainer (Falcon) and then centrifuged at 400×g for 5 minutes, whereby the cells were collected.
The cells thus collected from 10 newborns were suspended in 50 ml Medium 199 containing 10% fetal calf serum, plated onto 100 mm Petri dishes (Iwaki) in a volume of 10 ml/dish and cultured for 1 hour in a CO2 incubator set at 5% CO2 and 37° C. The cells were then recovered, filtered through a Cell Strainer and centrifuged at 400×g for 5 minutes to collect the primary heart muscle cells derived from newborn rats.
Then, the heart muscle cells from 10 newborn rats were suspended in 2 ml low-isotonic solution (prepared by dissolving 8.29 g NH4Cl, 1.0 g KHCO3, 37 mg EDTA/2Na (ethylenediaminetetraacetic acid disodium) (Dojindo) in 1 L of water) and left for 3 minutes to disrupt erythrocytes. After 10 ml Medium 199 containing 10% fetal calf serum was added thereto, the primary heart muscle cells from newborn rats were collected by centrifugation at 400×g for 5 minutes. The cells were suspended in Medium 199 containing 10% fetal calf serum and then filtered through a cell strainer. After 0.3% trypan blue was added to, and mildly mixed with, an aliquot of the resulting cell suspension, the number of heart muscle cells was counted on an erythrocyte counting plate.
The primary heart muscle cells from newborn rats were suspended at a density of 3×10^6 cells/ml in Medium 199 containing 10% fetal calf serum, put onto a 96-well plate in a volume of 0.1 ml/well, and then cultured in a CO2 incubator set at 5% CO2 and 37° C. After the plate was stirred with a micromixer (Taiyo Kagaku Kogyo), the medium was exchanged 3 times with serum-free Medium 199, and then test compounds were added thereto. The cells were cultured for additional 4 days to induce apoptosis. Then, fetal calf serum was added thereto at a concentration of 10%, and the cells were further cultured for about 17 hours in a CO2 incubator set at 5% CO2 and 37° C. Finally, the number of viable cells was determined with Cell Counting Kit (Dojindo) using WST-8 (2-(2-methoxy-4-nitrophenyl)-3-(4-nitrophenyl)-5-(2,4-disulfophenyl)-2H-tetrazolium, monosodium salt) as the coloring substrate to determine the inhibition of the heart muscle cell apoptosis.
The above-mentioned experiment was triplicated in an independent manner.
The Mean minimal effective concentration (±SD) was shown for each test compound (Compounds 1 to 5 obtained in Reference Examples) in Table 1. In Table 1, the minimal effective concentration is defined as the concentration required to increase the mean viable cell number by 50% as compared with that in the absence of test compounds.
A general note: Tetrazolium dyes change colour on reduction, which living cells bring about.

Drawing on US7767665B2, “1,3-benzothiazinone derivatives and use thereof” (Takeda Pharmaceutical Company Limited, priority 2001, dated 2010), this text covers minimal effective concentration and melting point for 26 molecules.

Broadly, the minimal effective concentration is the lowest level tested that produced the effect sought. What is called melting point is the temperature of the solid-liquid transition.

In the case of `CCCN(C(=O)c1cccc(-c2nc(=O)c3ccccc3s2)n1)C(=O)N(C)C` [Example 52, N,N-Dimethyl-N′-[[6-(4-oxo-4H-1,3-benzothiazin-2-yl)-2-pyridyl]carbonyl]-N′-propylurea], the melting point lay in the range of 190.8 to 192.4 °C. For the same molecule, the minimal effective concentration in data set [1] was found to be 0.01 µM.
The matching figures for `CSc1cccc(-c2nc(=O)c3ccccc3s2)n1` [Example 43, 2-(6-Methylthio-2-pyridyl)-4H-1,3-benzothiazine-4-one]: 207.2 to 207.8 °C and 0.053 µM.
For `CCC[S+]([O-])c1cccc(-c2nc(=O)c3ccccc3s2)n1` (stereo not shown) [Example 60, 2-(6-Propylsulfinyl-2-pyridyl)-4H-1,3-benzothiazine-4-one] the same measures were 174.8 to 175.4 °C and 0.019 µM.
For `CN(C)/C=N/S(=O)(=O)CC(C)(C)COc1cccc(-c2nc(=O)c3ccccc3s2)n1` [Example 100, N,N-(Dimethylaminomethylene)-2,2-dimethyl-3-{[6-(4-oxo-4H-1,3-benzothiazin-2-yl)-2-pyridyl]oxy}-1-propanesulfonamide] the same measures were 174.5 to 175.3 °C and 0.036 µM.
In the case of `O=C(NCc1ccccc1)c1cccc(-c2nc(=O)c3ccccc3s2)n1` [Example 51, N-Benzyl-6-(4-oxo-4H-1,3-benzothiazin-2-yl)-2-pyridinecarboxamide], the melting point lay in the range of 197.1 to 197.9 °C. Also, the minimal effective concentration in data set [1] was 0.034 µM.
As for `O=c1nc(-c2ccc(C(F)(F)F)cn2)sc2ccccc12` [Example 49, 2-[5-(trifluoromethyl)-2-pyridyl]-4H-1,3-benzothiazine-4-one], the melting point fell in the range of 207.2 to 207.4 °C. Besides, the minimal effective concentration in data set [1] came to 0.043 µM.
The matching figures for `O=c1nc(-c2ccccn2)sc2cc(Cl)ccc12` [Example 10, 7-Chloro-2-(2-pyridyl)-4H-1,3-benzothiazine-4-one]: 245.3 to 245.6 °C and 0.023 µM.
The matching figures for `O=c1nc(-c2ccccn2)sc2cc(F)ccc12` [Example 19, 7-Fluoro-2-(2-pyridyl)-4H-1,3-benzothiazine-4-one]: 250 to 250.2 °C and 0.025 µM.
For `COc1cccc(-c2nc(=O)c3ccccc3s2)n1` [Example 56, 2-(6-Methoxy-2-pyridyl)-4H-1,3-benzothiazine-4-one], the melting point lay in the range of 226 to 226.1 °C. The minimal effective concentration in data set [1] was 0.039 µM.
The matching figures for `O=c1nc(-c2ccccn2)sc2cccc(F)c12` [Example 21, 5-Fluoro-2-(2-pyridyl)-4H-1,3-benzothiazine-4-one]: 256.5 to 257.2 °C and 0.03 µM.
For `CN(C)C(=O)N(Cc1ccccc1)C(=O)c1cccc(-c2nc(=O)c3ccccc3s2)n1` [Example 53, N-Benzyl-N′,N′-dimethyl-N-[[6-(4-oxo-4H-1,3-benzothiazin-2-yl)-2-pyridyl]carbonyl]-urea] the same measures were 222.2 to 224 °C and 0.032 µM.
The matching figures for `CCCCN(C)C(=O)c1cccc(-c2nc(=O)c3ccccc3s2)n1` [Example 103, N-Butyl-N-methyl-6-(4-oxo-4H-1,3-benzothiazin-2-yl)-2-pyridinecarboxamide]: 80 to 81.6 °C and 0.042 µM.
As to `O=c1nc(-c2ccnc(N3CCOCC3)c2)sc2ccccc12` [Example 73, 2-(2-Morpholinyl-4-pyridyl)-4H-1,3-benzothiazine-4-one], the melting point is 157 to 158 °C. The molecule also registered a minimal effective concentration in data set [1] of 0.024 µM.
For `CCSc1cccc(-c2nc(=O)c3ccccc3s2)n1` [Example 126, 2-[6-(Ethylthio)-2-pyridyl]-4H-1,3-benzothiazine-4-one] the same measures were 161.3 to 162 °C and 0.032 µM.
For `CN(C)CCSc1cccc(-c2nc(=O)c3ccccc3s2)n1` [Example 133, 2-{[6-[2-(N,N-Dimethylamino)ethyl]thio]-2-pyridyl}-4H-1,3-benzothiazine-4-one] the same measures were 154.8 °C (dec.) and 0.06 µM.
The matching figures for `CCCOc1cccc(-c2nc(=O)c3ccccc3s2)n1` [Example 58, 2-(6-Propoxy-2-pyridyl)-4H-1,3-benzothiazine-4-one]: 138.3 to 140 °C and 0.091 µM.
The molecule `COCOCc1cccc(-c2nc(=O)c3ccccc3s2)n1` [Example 65, 2-[(6-Methoxymethoxymethyl)-2-pyridyl]-4H-1,3-benzothiazine-4-one] returned a melting point of 159.6 to 159.8 °C. The molecule also showed a minimal effective concentration in data set [1] of 0.045 µM.
For `CCCS(=O)(=O)c1cccc(-c2nc(=O)c3ccccc3s2)n1` [Example 61, 2-(6-Propylsulfonyl-2-pyridyl)-4H-1,3-benzothiazine-4-one] the same measures were 173.8 to 174.5 °C and 0.01 µM.
For `COC(=O)c1ccccc1Sc1cc(-c2nc(=O)c3ccccc3s2)ccn1` [Example 77, methyl 2-{[4-(4-oxo-4H-1,3-benzothiazin-2-yl)-2-pyridyl]thio}benzoate] the same measures were 137 to 137.9 °C and 0.039 µM.
Turning to `O=c1nc(-c2ccccn2)sc2ccc(F)cc12` [Example 20, 6-Fluoro-2-(2-pyridyl)-4H-1,3-benzothiazine-4-one], the melting point lay within 239.9 to 240.4 °C. In addition, the minimal effective concentration in data set [1] was 0.038 µM.
For `CCN(CC)C(=O)c1cccc(-c2nc(=O)c3ccccc3s2)n1` [Example 105, N,N-Diethyl-6-(4-oxo-4H-1,3-benzothiazin-2-yl)-2-pyridinecarboxamide] the same measures were 194 to 194.3 °C and 0.028 µM.
The matching figures for `O=C(O)CCc1cccc(-c2nc(=O)c3ccccc3s2)n1` [Example 79, 3-[6-(4-Oxo-4H-1,3-benzothiazin-2-yl)-2-pyridyl]propionic acid]: 243.2 to 243.5 °C and 0.061 µM.
For `CN(C(=O)c1cccs1)c1cccc(-c2nc(=O)c3ccccc3s2)n1` [Example 111, N-Methyl-N-[6-(4-oxo-4H-1,3-benzothiazin-2-yl)-2-pyridyl]-2-thiophenecarboxamide] the same measures were 191.5 to 192.9 °C and 0.037 µM.
On to `O=c1nc(-c2ccccn2)sc2cc(C(F)(F)F)ccc12` [Example 85, 2-(2-Pyridyl)-7-trifluoromethyl-4H-1,3-benzothiazine-4-one], for which the melting point was in the range of 175.8 to 177 °C. The minimal effective concentration in data set [1] turned out to be 0.04 µM.
For `Cc1ccnc(-c2nc(=O)c3ccc(Cl)cc3s2)c1` [Example 29, 7-Chloro-2-(4-methyl-2-pyridyl)-4H-1,3-benzothiazine-4-one] the same measures were 246.2 to 246.7 °C and 0.035 µM.
`CSc1cc(-c2nc(=O)c3ccccc3s2)ccn1` [Example 68, 2-(2-Methylthio-4-pyridyl)-4H-1,3-benzothiazine-4-one]: the melting point lay in the range of 173.4 to 173.5 °C. This molecule registered a minimal effective concentration in data set [1] of 0.018 µM.
